Measurements as given in patent US20210045385A1, “PYRIDAZINONE-SUBSTITUTED KETOXIMES AS HERBICIDES” (FMC Corporation, priority 2018, published 2021).

Key:
Type in all cases: in vivo
corn (Zea mays) = assay: Test C postemergence, visual plant response rating; details: Test C, postemergence, 1000 g ai/ha
Description: (§1) Seeds of plant species selected from barnyardgrass (Echinochloa crus-galli), kochia (Bassia scoparia), ragweed (common ragweed, Ambrosia artemisiifolia), Italian ryegrass (Lolium mutiflorum), foxtail, giant (giant foxtail, Setaria faberi), foxtail, green (green foxtail, Setaria viridis), and pigweed (Amaranthus retroflexus) were planted into a blend of loam soil and sand and treated preemergence with a directed soil spray using test chemicals formulated in anon-phytotoxic solvent mixture which included a surfactant.
(§2) At the same time, plants selected from these weed species and also wheat (Triticum aestivum), corn (Zea mays), blackgrass (Alopecurus myosuroides), and galium (catchweed bedstraw, Galium aparine) were planted in pots containing the same blend of loam soil and sand and treated with post emergence applications of test chemicals formulated in the same manner. Plants ranged in height from 2 to 10 cm and were in the one- to two-leaf stage for the postemergence treatment. Treated plants and untreated controls were maintained in a greenhouse for approximately 10 d, after which time all treated plants were compared to untreated controls and visually evaluated for injury. Plant response ratings, summarized in Table C, are based on a 0 to 100 scale where 0 is no effect and 100 is complete control. A dash (-)response means no test result.

kochia (Bassia scoparia) [1] = assay: Test C postemergence, visual plant response rating; details: Test C, postemergence, 1000 g ai/ha
Description: as §1, §2

[2] = test system: galium (catchweed bedstraw, Galium aparine); assay: Test C postemergence, visual plant response rating; details: Test C, postemergence, 1000 g ai/ha
Description: as §1, §2

[3] = test system: pigweed (Amaranthus retroflexus); assay: Test C postemergence, visual plant response rating; details: Test C, postemergence, 1000 g ai/ha
Description: as §1, §2

[4] = test system: barnyardgrass (Echinochloa crus-galli); assay: Test C postemergence, visual plant response rating; details: Test C, postemergence, 1000 g ai/ha
Description: as §1, §2

[5] = test system: foxtail, giant (giant foxtail, Setaria faberi); assay: Test C postemergence, visual plant response rating; details: Test C, postemergence, 1000 g ai/ha
Description: as §1, §2

[6] = test system: blackgrass (Alopecurus myosuroides); assay: Test C postemergence, visual plant response rating; details: Test C, postemergence, 1000 g ai/ha
Description: as §1, §2

[7] = test system: wheat (Triticum aestivum); assay: Test C postemergence, visual plant response rating; details: Test C, postemergence, 1000 g ai/ha
Description: as §1, §2

[8] = test system: Italian ryegrass (Lolium mutiflorum); assay: Test C postemergence, visual plant response rating; details: Test C, postemergence, 1000 g ai/ha
Description: as §1, §2

[9] = test system: ragweed (common ragweed, Ambrosia artemisiifolia); assay: Test C postemergence, visual plant response rating; details: Test C, postemergence, 1000 g ai/ha
Description: as §1, §2

kochia (Bassia scoparia) [10] = assay: Test C preemergence, visual plant response rating; details: 1000 g ai/ha
Description: as §1, §2

[11] = test system: pigweed (Amaranthus retroflexus); assay: Test C preemergence, visual plant response rating; details: 1000 g ai/ha
Description: as §1, §2

[12] = test system: barnyardgrass (Echinochloa crus-galli); assay: Test C preemergence, visual plant response rating; details: 1000 g ai/ha
Description: as §1, §2

[13] = test system: foxtail, giant (giant foxtail, Setaria faberi); assay: Test C preemergence, visual plant response rating; details: 1000 g ai/ha
Description: as §1, §2

[14] = test system: Italian ryegrass (Lolium mutiflorum); assay: Test C preemergence, visual plant response rating; details: 1000 g ai/ha
Description: as §1, §2

[15] = test system: ragweed (common ragweed, Ambrosia artemisiifolia); assay: Test C preemergence, visual plant response rating; details: 1000 g ai/ha
Description: as §1, §2

| Structure (SMILES) | Corn plant response rating (0 to 100 scale) (corn (Zea mays)) | Kochia plant response rating (0 to 100 scale) (kochia (Bassia scoparia) [1]) | Galium plant response rating (0 to 100 scale) [2] | Pigweed plant response rating (0 to 100 scale) [3] | Barnyardgrass plant response rating (0 to 100 scale) [4] | Foxtail, Giant plant response rating (0 to 100 scale) [5] | Blackgrass plant response rating (0 to 100 scale) [6] | Wheat plant response rating (0 to 100 scale) [7] | Ryegrass, Italian plant response rating (0 to 100 scale) [8] | Ragweed plant response rating (0 to 100 scale) [9] | Kochia plant response rating (0 to 100 scale) (kochia (Bassia scoparia) [10]) | Pigweed plant response rating (0 to 100 scale) [11] | Barnyardgrass plant response rating (0 to 100 scale) [12] | Foxtail, Giant plant response rating (0 to 100 scale) [13] | Ryegrass, Italian plant response rating (0 to 100 scale) [14] | Ragweed plant response rating (0 to 100 scale) [15] |
| --- | --- | --- | --- | --- | --- | --- | --- | --- | --- | --- | --- | --- | --- | --- | --- | --- |
| CC(C)O/N=C(/c1c(O)cnn(C)c1=O)c1cccc2ccccc12 [Compound 223] | 0 | 0 | 90 | 40 | 20 | 30 | 0 | 0 | 0 | 50 | 0 | 100 | 0 | 0 | 0 | 20 |
| CCO/N=C(\c1c(O)cnn(C)c1=O)c1cccc2ccccc12 [Compound 224] | 0 | 0 | 90 | 50 | 10 | 50 | 10 | 0 | 0 | 50 | 20 | 100 | 10 | 80 | 0 | 70 |
